From patent publication US20180050993A1, “NOVEL FLUORINATED DERIVATIVES AS EGFR INHIBITORS USEFUL FOR TREATING CANCERS” (Trillium Therapeutics Inc., priority 2015, published 2018)
Where a name gives a salt, the structure may show the parent alone.

Columns and labels:
Assay in all cases: NCI screening panel, growth %
Assay type in all cases: cell-based, human
HT29 = conditions: Colon
Procedure: (§1) After 24 h, two plates of each cell line are fixed in situ with TCA, to represent a measurement of the cell population for each cell line at the time of drug addition (Tz). Experimental drugs are solubilised in dimethyl sulfoxide at 400-fold the desired final maximum test concentration and stored frozen prior to use. At the time of drug addition, an aliquot of frozen concentrate is thawed and diluted to twice the desired final maximum test concentration with complete medium containing 50 μg/ml gentamicin. Additional four, 10-fold or log serial dilutions are made to provide a total of five drug concentrations plus control. Aliquots of 100 μl of these different drug dilutions are added to the appropriate microtiter wells already containing 100 μl of medium, resulting in the required final drug concentrations.
(§2) Following drug addition, the plates are incubated for an additional 48 h at 37° C., 5% CO2, 95% air, and 100% relative humidity. For adherent cells, the assay is terminated by the addition of cold TCA (trichloroacetic acid). Cells are fixed in situ by the gentle addition of 50 μl of cold 50% (w/v) TCA (final concentration, 10% TCA) and incubated for 60 minutes at 4° C. The supernatant is discarded, and the plates are washed five times with tap water and air dried. Sulforhodamine B (SRB) solution (100 μl) at 0.4% (w/v) in 1% acetic acid is added to each well, and plates are incubated for 10 minutes at room temperature. After staining, unbound dye is removed by washing five times with 1% acetic acid and the plates are air dried. Bound stain is subsequently solubilised with 10 mM trizma base, and the absorbance is read on an automated plate reader at a wavelength of 515 nm. For suspension cells, the methodology is the same except that the assay is terminated by fixing settled cells at the bottom of the wells by gently adding 50 μl of 80% TCA (final concentration, 16% TCA). Using the seven absorbance measurements [time zero, […], control growth, (C), and test growth in the presence of drug at the five concentration levels (Ti)], the percentage growth is calculated at each of the drug concentration levels. Percentage growth inhibition is calculated as: [(Ti−Tz)/(C−Tz)]×100 for concentrations in which Ti>/=Tz and [(Ti−Tz)/Tz]×100 for concentrations in which Ti<Tz.
(§3) Three dose response parameters are calculated for each experimental agent. […] The drug concentration resulting in total growth inhibition (TGI) is calculated from Ti=Tz. […] Values are calculated for each of these three parameters if the level of activity is reached. However, if the effect is not reached or is exceeded, the value for that parameter is expressed as greater or less than the maximum or minimum concentration tested.

NCI-H522 = conditions: NSCLC
Procedure: as §1, §2, §3

ACHN = conditions: Renal
Procedure: as §1, §2, §3

OVCAR-8 = conditions: Ovarian
Procedure: as §1, §2, §3

UO-31 = conditions: Renal
Procedure: as §1, §2, §3

A498 = conditions: Renal
Procedure: as §1, §2, §3

K-562 = conditions: Leukemia
Procedure: as §1, §2, §3

NCI-H226 = conditions: NSCLC
Procedure: as §1, §2, §3

SF-295 = conditions: CNS
Procedure: as §1, §2, §3

NCI-H322M = conditions: NSCLC
Procedure: as §1, §2, §3

COLO 205 = conditions: Colon
Procedure: as §1, §2, §3

SR = conditions: Leukemia
Procedure: as §1, §2, §3

SW-620 = conditions: Colon
Procedure: as §1, §2, §3

SF-268 = conditions: CNS
Procedure: as §1, §2, §3

M14 = conditions: Melanoma
Procedure: as §1, §2, §3

MALME-3M = conditions: Melanoma
Procedure: as §1, §2, §3

IGROV1 = conditions: Ovarian
Procedure: as §1, §2, §3

786-0 = conditions: Renal
Procedure: as §1, §2, §3

SN12C = conditions: Renal
Procedure: as §1, §2, §3

HS 578T = conditions: Breast
Procedure: as §1, §2, §3

EKVX = conditions: NSCLC
Procedure: as §1, §2, §3

DU-145 = conditions: Prostate
Procedure: as §1, §2, §3

MDA-MB-468 = conditions: Breast
Procedure: as §1, §2, §3

SNB-19 = conditions: CNS
Procedure: as §1, §2, §3

HCT-15 = conditions: Colon
Procedure: as §1, §2, §3

MOLT-4 = conditions: Leukemia
Procedure: as §1, §2, §3

CCRF-CEM = conditions: Leukemia
Procedure: as §1, §2, §3

HL-60(TB) = conditions: Leukemia
Procedure: as §1, §2, §3

CAKI-1 = conditions: Renal
Procedure: as §1, §2, §3

OVCAR-5 = conditions: Ovarian
Procedure: as §1, §2, §3

For `Fc1ccc(Nc2ncnc3cc(OCCOC(F)F)c(OCCOC(F)F)cc23)c(F)c1Cl` [Compound 2D•HCl, N-(3-chloro-2,4-difluoro-phenyl)-6,7-bis[2-(difluoromethoxy)ethoxy]quinazolin-4-amine], the Growth % (HT29) was 58.66%, the Growth % (NCI-H522) was 24.07% and the Growth % (ACHN) was 17.88%. The Growth % (OVCAR-8) was 69.11%, the Growth % (UO-31) was 15.03% and the Growth % (A498) was 13.11%. The Growth % (K-562) was 37.37%, the Growth % (NCI-H226) was 84.65% and the Growth % (SF-295) was 76.73%. The Growth % (NCI-H322M) was −7.70%, the Growth % (COLO 205) was 77.41% and the Growth % (SR) was 75.96%. For the same molecule, the Growth % (SW-620) was 91.49%, the Growth % (SF-268) was 70.93% and the Growth % (M14) was 59.47%. The Growth % (MALME-3M) was 73.73%, the Growth % (IGROV1) was 6.79% and the Growth % (786-0) was 60.48%. The Growth % (SN12C) was 59.26%, the Growth % (HS 578T) was 68.48% and the Growth % (EKVX) was 48.49%. For the same molecule, the Growth % (DU-145) was 35.29%, the Growth % (MDA-MB-468) was −39.62% and the Growth % (SNB-19) was 75.78%. For the same molecule, the Growth % (HCT-15) was 55.49%, the Growth % (MOLT-4) was 55.03% and the Growth % (CCRF-CEM) was 75.53%. The Growth % (HL-60(TB)) was 80.36%, the Growth % (CAKI-1) was 15.86% and the Growth % (OVCAR-5) was 26.63%.
